Test results from US20140038289A1, “NONADHESIVE SPHERE CELL CULTURE CONTAINER, SYSTEM, AND METHOD” (NATIONAL DEFENSE MEDICAL CENTER, priority 2012, published 2014).

How the values were obtained:
Format in all cases: cell-based
[1] = tested on: human tongue cancer cell line SAS; test: Chemosensitivity assay (MTS), SAS parental cells and spheres; details: Cisplatin doses up to 200 μM for 48 hours, FIG. 4(B)
Protocol: (§1) Cells were seeding in 10-cm cell culture dish at a density of 1×10^6 cells/dish. For the chemosensitivity assay, cells were treated with 10 to 200 μM Cisplatin (Sigma, St Louis, Mo., U.S.A.) for 48 hours. For the radiosensitivity assay, cells were irradiated using a CyberKnife® radiosurgery system (Accuray, Sunnyvale, Calif., U.S.A.) to deliver different doses (2-10 Gy). Relative survival fraction of cells was determined by MTS assay using the CellTiter® 96 Aqueous One Solution Cell Proliferation Assay kit (Promega, Madison, Wis., U.S.A.) after 36 hours of radiation treatment. Please refer to FIG. 4(A), which depicts the survival (%) of SAS and OECM-1 parental cells and their spheres after radiation treatment, and cell viability was evaluated after these cells were treated with radiation doses up to 10 Gy for 36 hours and were subject to a MTS assay. In FIG. 4(A), SAS and OECM-1 spheres were more radioresistant than their parental cells. Please refer to FIG. 4(B), which depicts the survival (%) of SAS and OECM-1 parental cells and their spheres after the Cisplatin treatment, and cell viability was evaluated after these cells were treated with Cisplatin doses up to 200 μM for 48 hours and were subject to a MTS (3-(4,5-dimethylthiazol-2-yl)-5-(3-carboxymethoxyphenyl)-2-(4-sulfophenyl)-2H-tetrazolium) assay.

[2] = tested on: human oral squamous carcinoma cell line OECM-1; test: Chemosensitivity assay (MTS), OECM-1 parental cells and spheres; details: Cisplatin doses up to 200 μM for 48 hours, FIG. 4(B)
Protocol: as §1

[3] = tested on: human tongue cancer cell line SAS; test: Combined chemo- and radiotherapy (CCRT) treatment, SAS parental cells and spheres; details: 20 μM Cisplatin for 24 hours followed by radiotherapy, FIG. 4(C)
Protocol: (§2) Cells were seeding in 10-cm cell culture dish at a density of 1×10^6 cells/dish. For the chemosensitivity assay, cells were treated with 10 to 200 μM Cisplatin (Sigma, St Louis, Mo., U.S.A.) for 48 hours. For the radiosensitivity assay, cells were irradiated using a CyberKnife® radiosurgery system (Accuray, Sunnyvale, Calif., U.S.A.) to deliver different doses (2-10 Gy). Relative survival fraction of cells was determined by MTS assay using the CellTiter® 96 Aqueous One Solution Cell Proliferation Assay kit (Promega, Madison, Wis., U.S.A.) after 36 hours of radiation treatment. To imitate the clinical condition, a combined chemo- and radiotherapy (CCRT) treatment was administered on SAS and OECM-1 parental cells and their spheres. Please refer to FIG. 4(C), which depicts the survival (%) of SAS and OECM-1 parental cells and their spheres after Cisplatin treatment followed by radiation treatment. This assay was performed by treating cells with chemotherapy using 20 μM Cisplatin for 24 hours followed by radiotherapy. […] Please refer to FIG. 4(D), which depicts the survival (%) of SAS and OECM-1 parental cells and their spheres after radiation treatment followed by Cisplatin treatment. […]

[4] = tested on: human oral squamous carcinoma cell line OECM-1; test: Combined chemo- and radiotherapy (CCRT) treatment, OECM-1 parental cells and spheres; details: 20 μM Cisplatin for 24 hours followed by radiotherapy, FIG. 4(C)
Protocol: as §2

## N.N.[Cl][Pt][Cl] [Cisplatin]
[1]
  survival (%) after Cisplatin treatment, spheres vs parental cells: spheres were more resistant to Cisplatin than their parental cells
[2]
  survival (%) after Cisplatin treatment, spheres vs parental cells: spheres were more resistant to Cisplatin than their parental cells
[3]
  survival (%) after Cisplatin treatment followed by radiation treatment, vs single treatment: more effective in reducing the survival rate of the parental cells and spheres compared with the single treatment
[4]
  survival (%) after Cisplatin treatment followed by radiation treatment, vs single treatment: more effective in reducing the survival rate of the parental cells and spheres compared with the single treatment
